Results: patent US20230357154A1 (priority 2019, published 2023)
Like-named read-outs stand apart in the source and are kept apart here.

What was measured:
[1] = mouse, in vivo; for CA (pooled): BChE-KO, 5XFAD-BChE-KO (pooled)
[2] = type: in vivo; details: 5XFAD mouse, IV, 3D SPECT

| SMILES | time of peak radioligand uptake in brain ([1]; 5XFAD and WT) | decrease in kclearance ([1]; 5XFAD compared to WT) | increase in t1/2clearance ([1]; 5XFAD compared to WT) | CA (pooled) ([1]; 5XFAD, WT) | t1/2 clearance ([1]; 5XFAD) | t1/2 clearance ([1]; WT) | t1/2 clearance [1] | distribution of the tracer in vivo (extracranial) [2] | radioligand reaching the brain [2] | ability to cross the blood-brain barrier / brain uptake ([1]; iv, 60 min) | time of peak radioligand uptake in brain ([1]; WT and BChE-KO) | kclearance (pooled) [1] | time of peak radioligand uptake in brain ([1]; 5XFAD and WT (wild-type)) | CA (asymptotic tracer concentration) ([1]; 5XFAD-BChE-KO) |
| --- | --- | --- | --- | --- | --- | --- | --- | --- | --- | --- | --- | --- | --- | --- |
| COc1cccc(C(=O)OCc2ccc(I)cc2)n1 [TRV7019, (p-iodophenyl)methyl 6-methoxy-2-pyridinecarboxylate] | 1 minutes post-injection | 58% | 82% | 56.1 ± 3.5 % Cmax | 3.22 ± 0.55 min | 1.77 ± 0.15 min | 1.77 ± 0..15 min | – | – | – | – | – | – | – |
| O=C(OCc1ccccc1)c1cccc(OCc2ccc(I)cc2)n1 [TRV7040, Benzyl 6-[(p-iodophenyl)methoxy]-2-pyridinecarboxylate] | – | – | – | – | – | – | – | avid uptake of TRV7040 is seen in the eye and hardarian glands | negligible radioligand reaching the brain | inability of TRV7040 to cross the BBB and reach the brain | – | – | – | – |
| Cn1c(C(=O)OCc2ccc(I)cc2)cccc1=O [TRV7006, (p-Iodophenyl)methyl 1-methyl-6-oxo-1H-pyridine-2-carboxylate] | – | – | – | 51.6 ± 3.4 % Cmax | – | 4.72 ± 0.93 min | – | – | – | – | 2 minutes post-injection | 0.17 ± 0.03 min⁻¹ | – | – |
| O=C(OCc1ccc(I)cc1)c1cccc(=O)[nH]1 [TRV7005, (p-Iodophenyl)methyl 6-oxo-1H-pyridine-2-carboxylate] | – | – | – | 45.4 ± 2.4 % Cmax | 6.51 ± 1.19 min | 7.21 ± 1.75 min | – | – | – | – | – | 0.11 ± 0.02 min⁻¹ | 2 minutes post-injection | 42.8 % Cmax |
